Test results published in a compilation of properties of binary mixtures.

Test: xn = mol fraction of the nth substance listed

CCCCCCCCCCCCOS(=O)(=O)[O-].CCCC[n+]1ccn(C)c1 + O
viscosity (303 K, 101 kPa, x1 = 0.011): 300 mPa·s | viscosity (303 K, 101 kPa, x1 = 0.0288): 113000 mPa·s | viscosity (303 K, 101 kPa, x1 = 0.0626): 1070000 mPa·s | viscosity (303 K, 101 kPa, x1 = 0.1512): 4200000 mPa·s | viscosity (303 K, 101 kPa, x1 = 1): 1.32e+07 mPa·s | viscosity (333 K, 101 kPa, x1 = 0.011): 25000 mPa·s | viscosity (333 K, 101 kPa, x1 = 0.0288): 335000 mPa·s | viscosity (333 K, 101 kPa, x1 = 0.1512): 1780000 mPa·s

CCCC[P+](CCCC)(CCCC)CCCC.F[B-](F)(F)F + C1COCO1
speed of sound (298.15 K, 100 kPa, x1 = 0.002): 1341.9 m/s | speed of sound (298.15 K, 100 kPa, x1 = 0.0052): 1400.4 m/s | speed of sound (298.15 K, 100 kPa, x1 = 0.0073): 1474.1 m/s

O=C[C@H](O)[C@@H](O)[C@H](O)[C@H](O)CO + CC[n+]1ccn(C)c1.[Cl-]
viscosity (373 K, 100 kPa, x1 = 0.0082): 47 mPa·s | viscosity (373 K, 100 kPa, x1 = 0.0829): 82 mPa·s | viscosity (373 K, 100 kPa, x1 = 0.1256): 96 mPa·s

CCCCCCCC/C=C\CCCCCCCC(=O)O + CC[N+](CC)(CC)CC.[Cl-]
viscosity (298 K, 100 kPa, x2 = 0.25): 202.2 mPa·s | viscosity (303.2 K, 100 kPa, x2 = 0.25): 156.7 mPa·s | viscosity (333.2 K, 100 kPa, x2 = 0.25): 41.7 mPa·s

CCCCC(CC)COC(=O)CC(C(=O)OCC(CC)CCCC)S(=O)(=O)[O-].CCCC[n+]1ccn(C)c1 (stereo not given) + O
viscosity (313.15 K, 99.6 kPa, x1 = 0.8695): 692 mPa·s | viscosity (323.15 K, 99.6 kPa, x1 = 0.8695): 363 mPa·s | viscosity (333.15 K, 99.6 kPa, x1 = 0.8695): 207 mPa·s

C=CC[n+]1ccn(C)c1.O=S(=O)([N-]S(=O)(=O)C(F)(F)F)C(F)(F)F + CCCO
viscosity (298.15 K, 100 kPa, x1 = 0.1): 3.31 mPa·s | viscosity (298.15 K, 100 kPa, x1 = 0.3): 6.61 mPa·s | viscosity (298.15 K, 100 kPa, x1 = 0.4): 8.51 mPa·s | viscosity (298.15 K, 100 kPa, x1 = 0.6): 13.42 mPa·s | viscosity (298.15 K, 100 kPa, x1 = 1): 34.3 mPa·s

ClCCl + CCCC[n+]1ccn(C)c1.O=S(=O)([N-]S(=O)(=O)C(F)(F)F)C(F)(F)F
electrical conductivity (296.35 K, 100 kPa, x2 = 0.0271): 0.64 S/m | electrical conductivity (296.35 K, 100 kPa, x2 = 0.039): 0.79 S/m | electrical conductivity (296.35 K, 100 kPa, x2 = 0.0623): 1.1 S/m | electrical conductivity (296.35 K, 100 kPa, x2 = 0.1129): 1.32 S/m | electrical conductivity (296.35 K, 100 kPa, x2 = 0.2144): 1.58 S/m

CCCCCCCCn1cc[n+](C)c1.O=S(=O)([N-]S(=O)(=O)C(F)(F)F)C(F)(F)F + O
viscosity (293.15 K, 101 kPa, x2 = 0.205): 75 mPa·s | electrical conductivity (295.15 K, 101 kPa, x2 = 0.205): 0.21 S/m

CCCCCCCC(=O)[O-].CCCCCC[NH+](CCCCCC)CCCCCC + O
viscosity (298.15 K, 101 kPa, x1 = 0.3915): 15.42 mPa·s | viscosity (298.15 K, 101 kPa, x1 = 0.7748): 21.01 mPa·s

CCCC[n+]1ccn(C)c1.[Cl-] + OCC(O)CO
speed of sound (298.15 K, 101 kPa, x2 = 0.333): 1838.8 m/s | speed of sound (303.15 K, 101 kPa, x2 = 0.333): 1826.5 m/s | speed of sound (313.15 K, 101 kPa, x2 = 0.333): 1802.4 m/s

CCCC[N+]1(C)CCCCC1.O=S(=O)([N-]S(=O)(=O)C(F)(F)F)C(F)(F)F + OCCOCCOCCOCCO
viscosity (298.15 K, 101 kPa, x2 = 0): 178.5 mPa·s | viscosity (298.15 K, 101 kPa, x2 = 0.5): 79.5 mPa·s

CCCCn1cc[n+](C)c1.O=S(=O)([N-]S(=O)(=O)C(F)(F)F)c1ccc[cH-]1.[Fe+2].c1cc[cH-]c1 + CCCC[n+]1ccn(C)c1.O=S(=O)([N-]S(=O)(=O)C(F)(F)F)C(F)(F)F
viscosity (298.15 K, 100 kPa, x2 = 0.461): 1226.1 mPa·s | viscosity (298.15 K, 100 kPa, x2 = 0.56): 542.8 mPa·s | viscosity (298.15 K, 100 kPa, x2 = 0.661): 295.4 mPa·s | viscosity (298.15 K, 100 kPa, x2 = 0.839): 108.5 mPa·s | viscosity (298.15 K, 100 kPa, x2 = 0.92): 73.3 mPa·s

CCCC[n+]1ccn(C)c1C.F[B-](F)(F)F + OCCOCCOCCOCCO
viscosity (298.15 K, 101 kPa, x2 = 0): 573 mPa·s | viscosity (298.15 K, 101 kPa, x2 = 0.5): 82.1 mPa·s

CCCn1cc[n+](C)c1C.O=S(=O)([N-]S(=O)(=O)C(F)(F)F)C(F)(F)F + OCCOCCOCCOCCO
viscosity (298.15 K, 101 kPa, x2 = 0): 85.6 mPa·s | viscosity (298.15 K, 101 kPa, x2 = 0.5): 56.1 mPa·s

CCCC[P+](CCCC)(CCCC)CCCC.[Cl-] + O
viscosity (313.15 K, 101 kPa, x1 = 0.0438): 2.533 mPa·s

CCCCCCC[N+](CCCCCCC)(CCCCCCC)CCCCCCC.[Br-] + CCCCCCCCCC(=O)O
viscosity (318.15 K, 100 kPa, x1 = 0.333): 205 mPa·s

CCCC[n+]1ccn(C)c1.F[P-](F)(F)(F)(F)F + CCCC[n+]1ccn(C)c1.O=S(=O)([N-]S(=O)(=O)C(F)(F)F)C(F)(F)F
viscosity (313.15 K, 100 kPa, x1 = 0.25): 36.48 mPa·s | viscosity (313.15 K, 100 kPa, x1 = 0.75): 73.2 mPa·s

CCCCCCCCCC(=O)O + CCCC[N+](CCCC)(CCCC)CCCC.[Cl-]
viscosity (298.15 K, 100 kPa, x2 = 0.333): 372 mPa·s | viscosity (328.15 K, 100 kPa, x2 = 0.333): 73.2 mPa·s | viscosity (358.15 K, 100 kPa, x2 = 0.333): 22.2 mPa·s

CCCCCCCCn1cc[n+](C)c1.[Br-] + O
viscosity (298.15 K, 100 kPa, x2 = 0.9008): 31.3 mPa·s | viscosity (298.15 K, 100 kPa, x2 = 0.9487): 7.96 mPa·s

CCCO + C=CC[n+]1ccn(C)c1.O=S(=O)([N-]S(=O)(=O)C(F)(F)F)C(F)(F)F
viscosity (298.15 K, 100 kPa, x2 = 0): 1.91 mPa·s

CC[N+]1(C)CCCC1.[Br-] + OCCO
speed of sound (293.15 K, 100 kPa, x1 = 0.2): 1716 m/s | speed of sound (298.15 K, 100 kPa, x1 = 0.2): 1704 m/s | speed of sound (303.15 K, 100 kPa, x1 = 0.2): 1692 m/s | speed of sound (308.15 K, 100 kPa, x1 = 0.2): 1681 m/s | speed of sound (313.15 K, 100 kPa, x1 = 0.2): 1654 m/s

OCC(F)(F)F + COP(=O)([O-])OC.Cn1cc[n+](C)c1
viscosity (298.15 K, 101 kPa, x2 = 0.1815): 6.5 mPa·s | viscosity (313.15 K, 101 kPa, x2 = 0.1815): 4.6 mPa·s | viscosity (313.15 K, 101 kPa, x2 = 0.4904): 24.5 mPa·s | viscosity (313.15 K, 101 kPa, x2 = 0.803): 70.5 mPa·s | viscosity (333.15 K, 101 kPa, x2 = 0.1815): 3.1 mPa·s | viscosity (333.15 K, 101 kPa, x2 = 0.4904): 12.8 mPa·s

CCCCCC[n+]1ccn(C)c1.O=S(=O)([N-]S(=O)(=O)C(F)(F)F)C(F)(F)F + O
viscosity (293.15 K, 101 kPa, x2 = 0.233): 55 mPa·s

O=S(=O)([N-]S(=O)(=O)C(F)(F)F)C(F)(F)F.[Li+] + COCCOCCOCCOCCOC
electrical conductivity (298 K, 100 kPa, x1 = 0.143): 0.255 S/m | electrical conductivity (303 K, 100 kPa, x1 = 0.143): 0.29 S/m | electrical conductivity (308 K, 100 kPa, x1 = 0.143): 0.325 S/m | electrical conductivity (313 K, 100 kPa, x1 = 0.143): 0.362 S/m | electrical conductivity (323 K, 100 kPa, x1 = 0.143): 0.465 S/m
